Results reported in paper PMC8422859, “A Novel Oral Arginase 1/2 Inhibitor Enhances the Antitumor Effect of PD-1 Inhibition in Murine Experimental Gliomas by Altering the Immunosuppressive Environment” (Frontiers in Oncology, 2021).

Assays:
[1] = Drug concentration in brain by LC-MS; type: in vivo, mouse; settings: GL261-bearing mice, 50 mg/kg oral twice a day, 14 days, 2 h after last dose
Experimental: Blood plasma, as well as the brain samples (from control and treated animals), were prepared for liquid chromatography coupled with mass spectrometry (LC-MS) by homogenization in 5% trichloroacetic acid (TCA) and the concentration of L-arginine – the substrate of arginase – was determined. In the urea cycle, arginase cleaves arginine to produce urea and ornithine. Ornithine reacts with carbamoyl phosphate to form citrulline. The brain homogenates prepared for arginine measurements, as well as plasma samples were also analyzed by LC-MS to determine the concentration of the drug, which was administered to animals 2 h before the euthanasia.

[2] = tested on: non-CNS tumor models; settings: cited from earlier work

**Q.** For `CN(C)C[C@@H]1CC[C@@H](CCB(O)O)C[C@]1(N)C(=O)O` [OAT-1746], which “OAT-1746 in the brain (crossing of the BBB)” value [1] is on record?
**A.** detected in the brain extracts

**Q.** And the “antitumor efficacy in non-CNS tumor models” value [2]?
**A.** significant antitumor efficacy

**Q.** And the “toxicity in experimental animals” value ([2]; multiple oral dosing, mono- or combinatorial therapies, other tumor models)?
**A.** no toxicity
